# Source: US4692443A, “3-bicyclicpyridinium-methyl cephalosporins” (Eli Lilly and Company, priority 1984, dated 1987)
# Read-outs that look alike come from different tables or passages of the source.
# How the values were obtained:
# Assay type in all cases: cell-based
# Staph. aureus X1.1 = experiment: standard in vitro agar dilution assay (MIC); conditions: Staphylococcus aureus; Staph. aureus strain X1.1; read-out: Agar Dilution MIC
# Staph. aureus V41 = experiment: standard in vitro agar dilution assay (MIC); conditions: Staphylococcus aureus; Staph. aureus strain V41; read-out: Agar Dilution MIC
# Staph. aureus X400 = experiment: standard in vitro agar dilution assay (MIC); conditions: Staphylococcus aureus; Staph. aureus strain X400
# Staph. aureus S13E = experiment: microbe, parasite or virus in culture; conditions: Staphylococcus aureus, read-out: Agar Dilution MIC
# Staph. epi EPI1 = experiment: standard in vitro agar dilution assay (MIC); conditions: Staph. epi strain EPI1
# Staph. epi 222 = experiment: standard in vitro agar dilution assay (MIC); conditions: Staph. epi strain 222
# Strep. A C203 = experiment: standard in vitro agar dilution assay (MIC); conditions: Strep. A strain C203
# Strep. PN PARK = experiment: standard in vitro agar dilution assay (MIC); conditions: Strep. PN strain PARK
# Strep. D X66 = experiment: standard in vitro agar dilution assay (MIC); conditions: Strep. D strain X66
# Strep. D 9960 = experiment: standard in vitro agar dilution assay (MIC); conditions: Strep. D strain 9960
# E. coli EC14 = experiment: standard in vitro agar dilution assay (MIC); conditions: Escherichia coli; E. coli strain EC14; read-out: Agar Dilution MIC
# E. coli TEM = experiment: standard in vitro agar dilution assay (MIC); conditions: Escherichia coli; E. coli strain TEM; read-out: Agar Dilution MIC
# Klebsiella X26 = experiment: standard in vitro agar dilution assay (MIC); conditions: Klebsiella strain X26; read-out: Agar Dilution MIC
# Klebsiella KAE = experiment: standard in vitro agar dilution assay (MIC); conditions: Klebsiella strain KAE; read-out: Agar Dilution MIC
# Klebsiella X68 = experiment: standard in vitro agar dilution assay (MIC); conditions: Klebsiella strain X68; read-out: Agar Dilution MIC
# Salmonella X514 = experiment: standard in vitro agar dilution assay (MIC)
# Pseudomonas X528 = experiment: standard in vitro agar dilution assay (MIC); conditions: Pseudomonas strain X528
# Source text: The antibacterial activity of several representative compounds of the invention has been evaluated in standard in vitro agar dilution assays. The following Table presents typical minimum inhibitory concentrations (MIC's) in μg /ml for exemplary compounds when evaluated against typical Gram + and Gram - microorganism.
# Pseudomonas X239 = experiment: standard in vitro agar dilution assay (MIC); conditions: Pseudomonas strain X239
# E. coli N10 = experiment: standard in vitro agar dilution assay (MIC); conditions: Escherichia coli; E. coli strain N10; read-out: Agar Dilution MIC
# [1] = test system: Enterobacter aerogenes C32; experiment: standard in vitro agar dilution assay (MIC); conditions: Klebsiella aerogenes; Enterobacter aerogenes strain C32; read-out: Agar Dilution MIC
# Enterobacter cloacae EB5 = experiment: standard in vitro agar dilution assay (MIC); conditions: Enterobacter cloacae strain EB5; read-out: Agar Dilution MIC
# H. influ. C.L. = experiment: standard in vitro agar dilution assay (MIC); conditions: H. influ. strain C.L.; read-out: Agar Dilution MIC
# H. influ. 76 = experiment: standard in vitro agar dilution assay (MIC); conditions: H. influ. strain 76; read-out: Agar Dilution MIC
# Serratia X99 = experiment: standard in vitro agar dilution assay (MIC); conditions: Serratia strain X99; read-out: Agar Dilution MIC
# [2] = Salmonella strain X514, read-out: Agar Dilution MIC
Compound,MIC (Staph. aureus X1.1),MIC (Staph. aureus V41),MIC (Staph. aureus X400),MIC (Staph. aureus S13E),MIC (Staph. epi EPI1),MIC (Staph. epi 222),MIC (Strep. A C203),MIC (Strep. PN PARK),MIC (Strep. D X66),MIC (Strep. D 9960),MIC (E. coli EC14),MIC (E. coli TEM),MIC (Klebsiella X26),MIC (Klebsiella KAE),MIC (Klebsiella X68),MIC (Salmonella X514; [2]),MIC (Pseudomonas X528),MIC (Pseudomonas X239),MIC (E. coli N10),MIC [1],further results
"CO/N=C(\C(=O)NC1C(=O)N2C(C(=O)[O-])=C(C[n+]3ccc4ncn(C)c4c3)CSC12)c1csc(N)n1 (stereo not drawn) [Example 3, syn-7-[2-(2-Aminothiazol-4-yl)-2-methoxyiminoacetamido]-3-(3-methyl-3H-imidazolo[4,5-c]pyridinium-5-ylmethyl)-3-cephem-4-carboxylate]",1 µg/mL,4 µg/mL,64 µg/mL,4 µg/mL,2 µg/mL,1 µg/mL,< 0.008 µg/mL,< 0.008 µg/mL,> 128 µg/mL,4 µg/mL,< 0.008 µg/mL,< 0.008 µg/mL,< 0.008 µg/mL,4 µg/mL,0.03 µg/mL,< 0.008 µg/mL,1 µg/mL,2 µg/mL,,,
"CO/N=C(\C(=O)NC1C(=O)N2C(C(=O)[O-])=C(C[n+]3ccc4c(c3)ncn4C)CSC12)c1csc(N)n1 (stereo not drawn) [Example 4, syn-7-[2-(2-aminothiazol-4-yl)-2-methoxyiminoacetamido]-3-(1-methyl-1H-imidazolo[4,5-c]pyridinium-5-ylmethyl)-3-cephem-4-carboxylate]",1 µg/mL,8 µg/mL,64 µg/mL,8 µg/mL,2 µg/mL,1 µg/mL,0.15 µg/mL,0.15 µg/mL,> 128 µg/mL,2 µg/mL,< 0.008 µg/mL,0.015 µg/mL,0.015 µg/mL,4 µg/mL,0.015 µg/mL,,1 µg/mL,2 µg/mL,0.03 µg/mL,0.03 µg/mL,"MIC (Enterobacter cloacae EB5): 0.03 µg/mL; MIC (Salmonella X514; Salmonella, X514, read-out: Agar Dilution MIC): 0.05 µg/mL"
"CO/N=C(\C(=O)NC1C(=O)N2C(C(=O)[O-])=C(C[n+]3ccc4[nH]c(C)nc4c3)CSC12)c1csc(N)n1 (stereo not drawn) [Example 5, syn-7-[2-(2-aminothiazol-4-yl)-2-methoxyiminoacetamido]-3-(2-methyl-1H-imidazolo[4,5-c]pyridinium-5-ylmethyl)-3-cephem-4-carboxylate]",2 µg/mL,8 µg/mL,32 µg/mL,8 µg/mL,4 µg/mL,1 µg/mL,< 0.008 µg/mL,< 0.008 µg/mL,> 128 µg/mL,8 µg/mL,< 0.008 µg/mL,< 0.008 µg/mL,< 0.008 µg/mL,2 µg/mL,0.015 µg/mL,< 0.008 µg/mL,2 µg/mL,2 µg/mL,0.03 µg/mL,0.03 µg/mL,MIC (H. influ. C.L.): 0.015 µg/mL; MIC (H. influ. 76): 0.015 µg/mL; MIC (Serratia X99): 0.03 µg/mL
